Data set [1] in a line: PK study in mice, single dose i.p. The settings on record: mouse, in vivo, ip, single dose 50 mg/kg i.p.
Data set [2] deals with TEX cells. In words: Chemical screen, MTS assay, TEX cells. The settings on record: 10 μM, 72 hours. In kind it is cell-based, human. An excerpt: To identify compounds active against leukemia stem cells, a library of drugs (n=312) with well-characterized pharmacokinetics and toxicology and a wide therapeutic window was compiled. This library was then screened to identify agents that reduced the viability of TEX and M9-ENL1 cells. TEX and M9-ENL1 cells were derived from lineage-depleted human cord blood cells (Lin-CB) transduced with TLS-ERG or MLL-ENL oncogenes, respectively, and, as shown previously, display properties of stem cells including hierarchal differentiation and marrow repopulation^14, 15. In this screen, TEX and M9-ENL1 cells were treated with aliquots of the compounds. After incubation, cell growth and viability was measured by the MTS assay. From this screen, tigecycline was identified.
TEX, and M9-ENL-1 cells were seeded into 96-well polystyrene tissue culture plates (Corning). […] 72 (TEX) and 48 (M9-ENL-1) hours after incubation, cell growth and viability was measured by MTS assay. […]
Cell growth and viability was assessed by the MTS assay (Promega, Madison, Wis.) according to the manufacturer's instructions. Apoptosis and cell death was measured by Annexin V-fluroscein isothiocyanate (FITC; Biovision Research Products, Mountain View, Calif.), propidium iodide staining and flow cytometry according to the manufacturer's instructions and as previously described^30. […]

The subject of data set [3] is leukemia cell lines. The experiment in a line: Cell growth and viability, MTS assay, leukemia cell lines. It counts as cell-based. The settings on record: 72 hours, tested leukemia cell lines. The procedure:
(§1) FIG. 1. […] (A) TEX and (B) M9-ENL1 cells were plated in 96-well plates and drugs were added to the wells (5 μL per well) for final concentrations of 10 μM (shown) and 1 μM. Cell growth and viability was measured at 48 hours (M9-ENL-1) and 72 hours (TEX) by MTS assay. Cell viability is shown for each compound as a percent of cells treated with DMSO alone. (C) Leukemia, (D) myeloma, and (E) solid tumor cell lines were seeded in 96-well plates and then treated with increasing concentrations of tigecycline. Cell growth and viability was measured at 72 hours by MTS assay. Cell viability is expressed as mean percentage plus or minus SD (n=3) relative to vehicle-treated cells. […] Cell viability was measured at 72 hours by MTS assay. Cell viability is expressed as mean percentage plus or minus SD (n=3) relative to vehicle-treated cells.
(§2) Human leukemia (OCI-AML2, HL60, U937) cell lines were maintained in RPMI 1640 medium. Myeloma (LP-1, KMS11, 8226, JJN3, OP-M2) cell lines were maintained in Iscove's media. […]
(§3) Cell growth and viability was assessed by the MTS assay (Promega, Madison, Wis.) according to the manufacturer's instructions. Apoptosis and cell death was measured by Annexin V-fluroscein isothiocyanate (FITC; Biovision Research Products, Mountain View, Calif.), propidium iodide staining and flow cytometry according to the manufacturer's instructions and as previously described^30.

Data set [4] has as its system solid tumour cell lines. In words: Cell growth and viability, MTS assay, solid tumour cell lines. In kind it is cell-based. The settings on record: 72 hours. The procedure:
as §1, §2, §3

For data set [5], the system named is Cox-1, Cox-2 (mitochondrially-translated subunits I and II) over Cox-4. In words: Immunoblotting of cytochrome C oxidase subunits in leukemia cells. It counts as cell-based, human. The settings on record: TEX, OCI-AML2, two AML patients; 2.5 μM and 5 μM, 36 and 48 hours. As to the method:
(§4) FIG. 4. […] (A) Cells from TEX, OCI-AML2 and two primary AML patients were treated with increasing concentrations (2.5 μM and 5 μM) of tigecycline for 36 and 48 hours of tigecycline. Total proteins were extracted and analyzed by western blotting for Cox-1, Cox-2, Cox-4, grp78, XIAP, actin and tubulin. (B) TEX and AML patient cells were treated with increasing concentrations (2.5 μM and 5 μM) of tigecycline. Cox-1, Cox-2, and Cox-4 mRNA expression relative 18S was determined by quantitative RT-PCR. Data is shown as mean±SD. (C) TEX cells were treated with increasing concentrations of tigecycline and chloramphenicol (CAP) for 72 hours. Complex I, II and IV enzyme activity relative to citrate synthase activity was determined as described in materials and methods. (D) Cells from TEX, primary AML patients, and normal donors were treated with increasing concentrations of tigecycline. Mitochondrial membrane potential (ΔΨ) was determined by staining cells with JC-1 dye, and flow cytometry analysis (Red/Green ratio). Reactive oxygen species generation (ROS) was determined by staining with h2-DCFDA and Dihydroethidium (DHE).
Total cell lysates were prepared from cells as described previously^32. […] Protein concentrations were measured by the DC Protein assay. […]

In data set [6] the test system is TEX cells. In words: ROS generation (DCF-DA, DHE) in TEX cells. In kind it is cell-based, human. The settings on record: time-points up to 24 hours. The procedure:
as §4
A byproduct of the mitochondrial enzyme activities of the electron transport chain is the generation of reactive oxygen species (ROS). […] Therefore, the role of tigecycline on ROS generation in leukemia cells by analyzing hydrogen peroxide ions (H2O2) using a dichlorofluorescein dye (DCF-DA), and superoxide anions using dihydroethidium (DHE) was examined.

The term Tmax denotes the time from dosing to the highest level. Usually half-life stands for how long it takes for the measured level to halve. As usually defined, the IC50 is the midpoint of a concentration-inhibition curve. Read a low IC50 as higher potency. Consider `CN(C)c1cc(NC(=O)CNC(C)(C)C)c(O)c2c1C[C@H]1C[C@H]3[C@H](N(C)C)C(O)=C(C(N)=O)C(=O)[C@@]3(O)C(O)=C1C2=O` [tigecycline], for which, in data set [1], the Tmax was around 0.5 h and the half-life is around 4.5 h. For the same molecule, in data set [2], the “cell growth and viability in screen” value is “cell growth inhibitor”. In data set [3], this molecule had an IC50 of 5 to 8 µM. The molecule further displayed an IC50 in data set [4] above 10 µM. In addition, in data set [5], the “protein level of mitochondrially-translated subunits I and II over nuclear-translated subunit IV” value is given as “preferential decrease”. In addition, in data set [6], the ROS generation entry is recorded as “no observed increase”.

The record behind these values is patent US20140221301A1, “COMBINATION TREATMENT FOR CANCER” (priority 2011, published 2014).
